Measurements from the supplement of paper PMC10307832.

What was measured:
Assay in all cases: relative viability (nuclei count vs DMSO), 5 days (fraction); higher = more cells survive
Carfilzomib + Phenformin = compound: CC(C)C[C@H](NC(=O)[C@H](CCc1ccccc1)NC(=O)CN1CCOCC1)C(=O)N[C@@H](Cc1ccccc1)C(=O)N[C@@H](CC(C)C)C(=O)[C@@]1(C)CO1 [Carfilzomib] + N=C(N)NC(=N)NCCc1ccccc1 [Phenformin] (partner 250 µM)
Outline: (§1)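 Lung cancer cell lines in 1536-well plates were dosed by pin tool the day after seeding, either with one drug alone or with a fixed anchor-drug dose plus five library-drug doses (not always all listed) in √10 steps. After 5 days, cells were fixed and their nuclei stained in one step (final 0.05% Triton X-100, 1% formaldehyde, 1 ug/ml Hoechst), then counted on 4× images. Relative viability is the nuclei count in treated wells divided by that in vehicle wells. Values are medians of duplicate plates.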

Crizotinib + Tozasertib = compound: C[C@@H](Oc1cc(-c2cnn(C3CCNCC3)c2)cnc1N)c1c(Cl)ccc(F)c1Cl [Crizotinib] + Cc1cc(Nc2cc(N3CCN(C)CC3)nc(Sc3ccc(NC(=O)C4CC4)cc3)n2)n[nH]1 [Tozasertib] (partner 0.1 µM)
Outline: as §1

Olaparib + Luminespib = compound: O=C(c1cc(Cc2n[nH]c(=O)c3ccccc23)ccc1F)N1CCN(C(=O)C2CC2)CC1 [Olaparib] + CCNC(=O)c1noc(-c2cc(C(C)C)c(O)cc2O)c1-c1ccc(CN2CCOCC2)cc1 [Luminespib] (partner 0.01 µM)
Outline: as §1

Olaparib + Vorinostat = compound: O=C(c1cc(Cc2n[nH]c(=O)c3ccccc23)ccc1F)N1CCN(C(=O)C2CC2)CC1 [Olaparib] + O=C(CCCCCCC(=O)Nc1ccccc1)NO [Vorinostat] (partner 1 µM)
Outline: as §1

Cell Line | relative viability (Carfilzomib + Phenformin; first compound 0.001 µM) | relative viability (Carfilzomib + Phenformin; first compound 0.003162 µM) | relative viability (Carfilzomib + Phenformin; first compound 0.01 µM) | relative viability (Carfilzomib + Phenformin; first compound 0.03162 µM) | relative viability (Carfilzomib + Phenformin; first compound 0.1 µM) | relative viability (Crizotinib + Tozasertib; first compound 0.01 µM) | relative viability (Crizotinib + Tozasertib; first compound 0.03162 µM) | relative viability (Crizotinib + Tozasertib; first compound 0.1 µM) | relative viability (Crizotinib + Tozasertib; first compound 0.3162 µM) | relative viability (Crizotinib + Tozasertib; first compound 1 µM) | relative viability (Olaparib + Luminespib; first compound 0.08 µM) | relative viability (Olaparib + Luminespib; first compound 0.253 µM) | relative viability (Olaparib + Luminespib; first compound 2.53 µM) | relative viability (Olaparib + Luminespib; first compound 8 µM) | relative viability (Olaparib + Vorinostat; first compound 0.08 µM) | relative viability (Olaparib + Vorinostat; first compound 0.253 µM) | relative viability (Olaparib + Vorinostat; first compound 2.53 µM) | relative viability (Olaparib + Vorinostat; first compound 8 µM)
NCI-H1437 | 0.306 | 0.346 | 0.301 | 0.249 | 0.123 | 0.379 | 0.409 | 0.406 | 0.384 | 0.374 | 1.26 | 1.08 | 1.06 | 0.809 | 0.945 | 0.746 | 0.695 | 0.639
NCI-H1650 | 0.421 | 0.254 | 0.232 | 0.174 | 0.156 | 0.407 | 0.35 | 0.433 | 0.356 | 0.415 | 0.245 | 0.188 | 0.2 | 0.195 | 0.531 | 0.522 | 0.671 | 0.476
NCI-H1651 | 0.33 | 0.342 | 0.173 | 0.133 | 0.0929 | 0.697 | 0.7 | 0.701 | 0.723 | 0.621 | 0.798 | 0.605 | 0.431 | 0.216 | 0.493 | 0.515 | 0.493 | 0.365
NCI-H1666 | 0.594 | 0.569 | 0.528 | 0.428 | 0.278 | 0.547 | 0.586 | 0.665 | 0.648 | 0.539 | 1.1 | 0.879 | 0.889 | 0.697 | 1.06 | 0.957 | 0.981 | 0.836
NCI-H1734 | 0.375 | 0.404 | 0.331 | 0.18 | 0.104 | 0.247 | 0.27 | 0.253 |  | 0.257 | 0.212 | 0.205 | 0.185 | 0.183 | 0.868 | 0.74 | 0.715 | 0.572
NCI-H1755 | 0.623 | 0.664 | 0.66 | 0.592 | 0.238 | 0.614 | 0.563 | 0.617 | 0.467 | 0.549 | 0.743 | 0.411 | 0.41 | 0.418 | 0.748 | 0.588 | 0.704 | 0.637
NCI-H1915 | 0.367 | 0.403 | 0.359 | 0.255 | 0.0555 | 0.49 | 0.463 | 0.439 |  | 0.382 | 0.685 | 0.575 | 0.408 | 0.387 | 0.495 | 0.438 | 0.373 | 0.281
NCI-H1944 | 0.187 | 0.2 | 0.202 | 0.204 | 0.139 | 0.254 | 0.248 | 0.252 | 0.247 | 0.254 | 0.741 | 0.625 | 0.534 | 0.534 | 0.534 | 0.423 | 0.399 | 0.367
NCI-H1975 |  | 0.367 | 0.197 | 0.0933 | 0.0936 | 0.644 | 0.705 | 0.782 | 0.705 | 0.746 | 0.169 | 0.174 | 0.258 | 0.234 | 0.739 | 0.649 | 0.717 | 0.624
